Earlier results as cited in US20230066204A1 (OYE Therapeutics, Inc, priority 2019, published 2023).

System: rat
Settings: administered intravenously

Cn1c(=O)c2c(ncn2C)n(C)c1=O [Caffeine]
accelerating emergence from anesthesia: effective in accelerating emergence from anesthesia
